The numbers were not newly measured in patent US8541371B2, “Treatment of conditions related to cecal ligation shock” (The Regents of The University of California, priority 2009, dated 2013), which cites them from elsewhere.

The test system of the data set is shock. As to conditions: shock patients, approved treatment.

In the case of drotrecogin alfa (activated) [XIGRIS], the survival benefit entry is recorded as “minor but confirmed survival benefit”.
